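Following 48 hours of exposure in 96-well plates, responses at five concentrations were used to interpolate endpoints linearly. GI50 marks 50% less growth.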 Calls of active or inactive are those of the source. No stated cut-off is given here; in the data, active = GI50 up to about 1.1 µM and inactive = higher.
What was measured:
Assay in all cases: growth of human tumour cells (NCI), 48 h
Malme-3M = test system: Malme-3M
NCI-H460 = test system: NCI-H460
SK-MEL-5 = test system: SK-MEL-5
SF-295 = test system: SF-295
M19-MEL = test system: M19-MEL
NCI-H23 = test system: NCI-H23
OVCAR-3 = test system: OVCAR-3
NCI-H522 = test system: NCI-H522
NCI-H226 = test system: NCI-H226
DLD-1 = test system: DLD-1
SR = test system: SR
SN12C = test system: SN12C
HCT-15 = test system: HCT-15
KM-20L2 = test system: KM-20L2
OVCAR-4 = test system: OVCAR-4
CCRF-CEM = test system: CCRF-CEM
SF-268 = test system: SF-268
U-251 = test system: U-251
SW-620 = test system: SW-620
HL-60 = test system: HL-60
TK-10 = test system: TK-10
UACC-257 = test system: UACC-257
HCC 2998 = test system: HCC 2998
RPMI-8226 = test system: RPMI-8226
EKVX = test system: EKVX
OVCAR-8 = test system: OVCAR-8
DMS-273 = test system: DMS-273
SNB-78 = test system: SNB-78
SK-MEL-28 = test system: SK-MEL-28
DMS-114 = test system: DMS-114
MOLT-4 = test system: MOLT-4
UO-31 = test system: UO-31
COLO 205 = test system: COLO 205
A549 = test system: A549
SNB-19 = test system: SNB-19
OVCAR-5 = test system: OVCAR-5
LXFL 529 = test system: LXFL 529
HCT-116 = test system: HCT-116
A498 = test system: A498
K562 = test system: K562
ACHN = test system: ACHN
LOX IMVI = test system: LOX IMVI
RXF 393 = test system: RXF 393
HT-29 = test system: HT-29
786-0 = test system: 786-0
XF498 = test system: XF498
IGROV-1 = test system: IGROV-1
HOP-62 = test system: HOP-62
KM12 = test system: KM12
SF-539 = test system: SF-539
SNB-75 = test system: SNB-75
CAKI-1 = test system: CAKI-1
SK-OV-3 = test system: SK-OV-3
HOP-92 = test system: HOP-92
UACC-62 = test system: UACC-62
M14 = test system: M14
SK-MEL-2 = test system: SK-MEL-2

`COc1ccc(C2=NN(c3ccccc3)C[N+](c3ccc(C)cc3)=N2)cc1` was tested, and the GI50 (Malme-3M) was 48.3 µM (inactive), the GI50 (NCI-H460) was 65.5 µM (inactive) and the GI50 (SK-MEL-5) was > 10 µM (inactive). For the same molecule, the GI50 (SF-295) was > 100 µM (inactive), the GI50 (M19-MEL) was 29.9 µM (inactive) and the GI50 (NCI-H23) was 41.3 µM (inactive). The GI50 (OVCAR-3) was 23 µM (inactive), the GI50 (NCI-H522) was 12.7 µM (inactive) and the GI50 (NCI-H226) was 55.3 µM (inactive). For the same molecule, the GI50 (DLD-1) was 40.6 µM (inactive), the GI50 (SR) was 34 µM (inactive) and the GI50 (SN12C) was 66.5 µM (inactive). For the same molecule, the GI50 (HCT-15) was 51.2 µM, the GI50 (KM-20L2) was 59 µM (inactive) and the GI50 (OVCAR-4) was 13.2 µM (inactive). The GI50 (CCRF-CEM) was 19.3 µM (inactive), the GI50 (SF-268) was 70.6 µM (inactive) and the GI50 (U-251) was 20.6 µM (inactive). The GI50 (SW-620) was 25.6 µM (inactive), the GI50 (HL-60) was 27.7 µM (inactive) and the GI50 (TK-10) was > 100 µM (inactive). The GI50 (UACC-257) was > 100 µM (inactive), the GI50 (HCC 2998) was > 100 µM (inactive) and the GI50 (RPMI-8226) was 26.9 µM (inactive). For the same molecule, the GI50 (EKVX) was 44.3 µM (inactive), the GI50 (OVCAR-8) was 78.2 µM (inactive) and the GI50 (DMS-273) was > 10 µM (inactive). For the same molecule, the GI50 (SNB-78) was 27.9 µM (inactive), the GI50 (SK-MEL-28) was 58.9 µM (inactive) and the GI50 (DMS-114) was 24.7 µM (inactive). The GI50 (MOLT-4) was 19.8 µM (inactive), the GI50 (UO-31) was 38.3 µM (inactive) and the GI50 (COLO 205) was 31.3 µM (inactive). The GI50 (A549) was 59.7 µM (inactive), the GI50 (SNB-19) was 34.1 µM (inactive) and the GI50 (OVCAR-5) was 29.9 µM (inactive). For the same molecule, the GI50 (LXFL 529) was 16.3 µM (inactive), the GI50 (HCT-116) was 35.1 µM (inactive) and the GI50 (A498) was 63 µM (inactive). For the same molecule, the GI50 (K562) was 14.6 µM (inactive), the GI50 (ACHN) was 50.2 µM (inactive) and the GI50 (LOX IMVI) was 32 µM (inactive). For the same molecule, the GI50 (RXF 393) was 19.5 µM (inactive), the GI50 (HT-29) was 73.1 µM (inactive) and the GI50 (786-0) was 43.6 µM (inactive). The GI50 (XF498) was 25.3 µM (inactive), the GI50 (IGROV-1) was 39.3 µM (inactive) and the GI50 (HOP-62) was > 100 µM (inactive). The GI50 (KM12) was > 10 µM (inactive).
In the case of `COC(=O)C(Cl)=C1CC1`, the GI50 (Malme-3M) is reported as 21.1 µM (inactive), the GI50 (NCI-H460) is reported as > 100 µM (inactive) and the GI50 (SK-MEL-5) is reported as 28.5 µM (inactive). For the same molecule, the GI50 (SF-295) was > 100 µM (inactive), the GI50 (M19-MEL) was 39.7 µM (inactive) and the GI50 (NCI-H23) was 45.2 µM (inactive). For the same molecule, the GI50 (OVCAR-3) was 26.7 µM (inactive), the GI50 (NCI-H522) was 17.6 µM (inactive) and the GI50 (NCI-H226) was > 100 µM (inactive). The GI50 (DLD-1) was 23.6 µM (inactive), the GI50 (SN12C) was 41.8 µM (inactive) and the GI50 (HCT-15) was 20.4 µM. For the same molecule, the GI50 (KM-20L2) was > 100 µM (inactive), the GI50 (OVCAR-4) was 34.8 µM (inactive) and the GI50 (CCRF-CEM) was 14.3 µM (inactive). The GI50 (SF-539) was 27.2 µM (inactive), the GI50 (SF-268) was 92.5 µM (inactive) and the GI50 (SW-620) was 18.3 µM (inactive). The GI50 (HL-60) was 19.7 µM (inactive), the GI50 (SNB-75) was 38.4 µM (inactive) and the GI50 (CAKI-1) was 17.9 µM (inactive). For the same molecule, the GI50 (TK-10) was 36.7 µM (inactive), the GI50 (UACC-257) was 31.6 µM (inactive) and the GI50 (HCC 2998) was 31.7 µM (inactive). The GI50 (SK-OV-3) was > 100 µM (inactive), the GI50 (RPMI-8226) was 21.8 µM (inactive) and the GI50 (EKVX) was > 10 µM (inactive). The GI50 (OVCAR-8) was 30.3 µM (inactive), the GI50 (DMS-273) was 31.6 µM (inactive) and the GI50 (SNB-78) was 49.1 µM (inactive). The GI50 (SK-MEL-28) was 22.9 µM (inactive), the GI50 (HOP-92) was 13.3 µM (inactive) and the GI50 (DMS-114) was 31 µM (inactive). The GI50 (MOLT-4) was 17.7 µM (inactive), the GI50 (UO-31) was 31.4 µM (inactive) and the GI50 (UACC-62) was 59 µM (inactive). For the same molecule, the GI50 (COLO 205) was 19.9 µM (inactive), the GI50 (A549) was > 100 µM (inactive) and the GI50 (M14) was 16.2 µM (inactive). The GI50 (SNB-19) was > 100 µM (inactive), the GI50 (OVCAR-5) was > 100 µM (inactive) and the GI50 (LXFL 529) was 16 µM (inactive). For the same molecule, the GI50 (A498) was > 100 µM (inactive), the GI50 (K562) was 22.3 µM (inactive) and the GI50 (ACHN) was 21.5 µM (inactive). The GI50 (LOX IMVI) was 16.7 µM (inactive), the GI50 (RXF 393) was 19.1 µM (inactive) and the GI50 (HT-29) was 34.2 µM (inactive). For the same molecule, the GI50 (786-0) was 26.1 µM (inactive), the GI50 (XF498) was 29.4 µM (inactive) and the GI50 (IGROV-1) was > 100 µM (inactive). The GI50 (HOP-62) was > 100 µM (inactive), the GI50 (SK-MEL-2) was 32.1 µM (inactive) and the GI50 (KM12) was 37 µM (inactive).

From ChEMBL document CHEMBL1201862, “PubChem BioAssay data set” (2004)
